# Data reported in patent US7704978B2, “Methods for treating neuropsychiatric disorders” (The General Hospital Corporation, priority 1998, dated 2010).
# Marks after values point to notes of the source that are not given here.
# Experiments:
# Schizophrenia Patients [1] = assay: Double-blind, placebo-controlled 6-week treatment of schizophrenia patients: clinical symptoms and cognition (SANS, PANSS, CGI, Wisconsin Card Sort Test); format: in vivo, human; settings: for cognition, PANSS-cognitive subscale and Wisconsin Card Sort Test: 6 weeks of treatment; for WCST (Wisconsin Card Sort Test), change: initiation versus end of the 6-week study; for WCST (Wisconsin Card Sort Test), change / Cognitive symptoms (PANSS-cognitive subscale), change / Positive Symptoms (PANSS-positive subscale), change / reduction of the negative symptoms (on the SANS scale) / reduction of the positive symptoms (on the PANSS-positive subscale) / CGI, score after treatment: D-serine 30, D-alanine 60-100, N-methylglycine 30 mg/kg/day; for Negative Symptoms (SANS), change / Cognitive symptoms (PANSS-cognitive subscale), change / Positive Symptoms (PANSS-positive subscale), change / reduction of the negative symptoms (on the SANS scale) / reduction of the positive symptoms (on the PANSS-positive subscale): once a day by mouth for 6 weeks; for Negative Symptoms (SANS), change: D-serine 30 mg/kg/day, D-alanine 60-100 mg/kg/day, N-methylglycine 30 mg/kg/day, added to stable antipsychotic; for CGI, score after treatment: value after the arrow: after 6 weeks, once a day by mouth; for CGI, baseline score: value before the arrow: baseline of the treatment group
# Source text: (§1) This study employed 37 patients who were diagnosed as having schizophrenia. All patients fulfilled the DSM-IV diagnosis of schizophrenia (APA, 1994, Diagnostic and Statistical Manual of Mental Disorders, Fourth Edition, Washington, D.C.). All of the patients also fulfilled the criteria of primary deficit syndrome, with a SANS score of more than 40 (Kirkpatrick et al., 1989, Psychiatry Research 30:119-123; Andreasen, 1983, Scales for the Assessment of Negative Symptoms (SANS), Iowa City, Iowa). All of the patients were poorly responsive to treatment by other antipsychotic drugs, and had been kept on a stable dose of an antipsychotic drug for at least 3 months prior to enrollment in this study.
# (§2) Several scales were used to assess the severity of the disorder in each patient. At the beginning of the study (i.e., the baseline), the PANSS, SANS, and […] were used. Each scale also was completed at the end of each 2-week period throughout the study. These assessments were performed by a psychiatrist who was blind to the treatment assignment. The Wisconsin Card Sort Test was used to provide a cognitive rating of the patients; in general, schizophrenic patients perform poorly on this test. The Wisconsin Card Sort Test was administered only at the initiation of the study and at the end of the 6-week study. To measure side effects, the Simpson-Angus Scale was used to measure extrapyramidal symptoms (EPS; Simpson et al., 1970, Acta Psychiatrica Scandinavia Suppl. 212:11-19). The Abnormal Involuntary Movement Scale (AIMS) was used to measure dyskinesia (Simpson et al., 1970, Acta Psychiatrica Scandinavia Suppl. 212:11-19). The Barnes Scale was used to measure akathesia (Barnes, 1989, Brit. J. Psychiatry 154:672-676). The side effects of D-serine, D-alanine, and N-methylglycine treatments were assessed biweekly according to the UKU side effects rating scale (Scandinavian Society of Psychopharmacology Committee of Clinical Investigation: The UKU side effect rating scale: scale for the registration of unwanted effects of psychotropics. Acta. Psychiatr. Scand. 1987; Suppl. 334:81-94).
# (§3) Using double-blind conditions, the patients were randomly assigned to receive placebo (fruit juice), D-serine (30 mg/kg/day), D-alanine (60-100 mg/kg/day), or N-methylglycine (30 mg/kg/day) once a day by mouth for a period of 6 weeks. As indicated by the results shown in Table 1, treatment with D-serine, D-alanine, or N-methylglycine improved the schizophrenic symptoms and cognitive deficit of the patients. […] These reductions in the negative and positive symptoms represented clinically significant improvement.
# Schizophrenia Patients [2] = settings: human, in vivo; for AIMS (dyskinesia), score after treatment / Barnes Scale (akathesia), score after treatment / EPS (Simpson-Angus Scale), score after treatment: 6 weeks
# Source text: as §1, §2, §3
"AIMS (dyskinesia), baseline score (Schizophrenia Patients [2])","Barnes Scale (akathesia), baseline score (Schizophrenia Patients [2])","EPS (Simpson-Angus Scale), baseline score (Schizophrenia Patients [2])","AIMS (dyskinesia), score after treatment (Schizophrenia Patients [2])","Barnes Scale (akathesia), score after treatment (Schizophrenia Patients [2])","EPS (Simpson-Angus Scale), score after treatment (Schizophrenia Patients [2])",SMILES,"cognition, PANSS-cognitive subscale and Wisconsin Card Sort Test (Schizophrenia Patients [1])","WCST (Wisconsin Card Sort Test), change (Schizophrenia Patients [1])","Negative Symptoms (SANS), change (Schizophrenia Patients [1]) [%*]","Cognitive symptoms (PANSS-cognitive subscale), change (Schizophrenia Patients [1]) [%*]","Positive Symptoms (PANSS-positive subscale), change (Schizophrenia Patients [1]) [%*]",reduction of the negative symptoms (on the SANS scale) (Schizophrenia Patients [1]) [%],reduction of the positive symptoms (on the PANSS-positive subscale) (Schizophrenia Patients [1]) [%],"CGI, score after treatment (Schizophrenia Patients [1])","CGI, baseline score (Schizophrenia Patients [1])","side effects, UKU scale (Schizophrenia Patients [2])",significant side effects after treatment of schizophrenia patients (Schizophrenia Patients [2]),"tardive dyskinesia, extrapyramidal and akathesia symptoms (Schizophrenia Patients [2])"
0.4,0.5,2.1-->2.1,0.3,0.6,2.1-->2.1,CNCC(=O)O [N-methylglycine],improved cognition,+0.7* category,−20,−12,−15,20,15,2.7,4.2,no side effects were noted,no significant side effects were detected,no newly emergent tardive dyskinesia or worsening of extrapyramidal or akathesia symptoms
0.3-->0.3,0.4,1.4,0.3-->0.3,0.8,1.7,N[C@H](CO)C(=O)O [D-serine],improved cognition,+0.9 category,−21,−12,−17,21,17,2.6,4.8,no side effects were noted,no significant side effects were detected,no newly emergent tardive dyskinesia or worsening of extrapyramidal or akathesia symptoms
0.5,0.4,3.1-->3.1,0.1,0.6,3.1-->3.1,C[C@@H](N)C(=O)O [D-alanine],improved cognition,+0.5* category,−12,−11,−11,11,12,2.8,3.9,no side effects were noted,no significant side effects were detected,no newly emergent tardive dyskinesia or worsening of extrapyramidal or akathesia symptoms
